The values below come from PMC7504258, “New Hybrids of 4-Amino-2,3-polymethylene-quinoline and p-Tolylsulfonamide as Dual Inhibitors of Acetyl- and Butyrylcholinesterase and Potential Multifunctional Agents for Alzheimer’s Disease Treatment” (Molecules, 2020).

For one test, the target named is T1, Human erythrocyte AChE (Homo sapiens, UniProt P22303).
T1 construct: AChE from human erythrocytes was used; purchased Sigma-Aldrich; host or cells: human erythrocytes
The test can be described thus: biochemical. As to conditions: mean ± SEM, n = 3; pH 7.5, 25 °C. As to the method:
(§1) All experiments were carried out in accordance with the standard protocols approved by IPAC RAS. Human erythrocyte AChE, equine serum BChE, porcine liver CES, acetylthiocholine iodide (ATCh), butyrylthiocholine iodide (BTCh), 5,5′-dithio-bis-(2-nitrobenzoic acid) (DTNB), and 4-nitrophenol acetate (4-NPA) were purchased from Sigma-Aldrich (Saint Louis, MO, USA).
(§2) AChE and BChE activities were measured by the colorimetric method of Ellman et al.. The assay solution consisted of 0.1 M K/Na phosphate buffer pH 7.5, 25 °C, 0.33 mM DTNB, 0.02 unit/mL AChE or BChE, and 1 mM substrate (ATCh or BTCh, respectively). Reagent blanks consisted of reaction mixtures without substrates.
(§3) An initial evaluation of inhibitory activity of compounds was carried out by determination of the AChE, BChE and CES inhibition at a compound concentration of 20 µM. For this, a sample of the corresponding enzyme was incubated with the test compound for 5 min at 25 °C for temperature equilibration; then the enzyme residual activity was determined. Each experiment was performed in triplicate.
(§4) The test compounds were added to the assay solution and incubated with the enzyme at 25 °C for 5 min (for temperature equilibration) followed by the addition of substrate. A parallel control was made for the assay solution with no inhibitor.
(§5) Measurements were performed in the FLUOStar OPTIMA microplate spectrophotometer (BMG Labtech, Ortenberg, Germany). Each experiment for the IC50 assay was performed in triplicate. The results were expressed as the mean ± SEM. The reaction rates in the presence and absence of inhibitor were compared, and the percent residual enzyme activity due to the presence of test compounds was calculated. IC50 values were determined graphically from inhibition curves (log inhibitor concentration vs. percent residual enzyme activity) using Origin 6.1 software (OriginLab, Northampton, MA, USA).

The target in another test is T2, Equine serum BChE (Equus caballus, UniProt P81908).
T2 construct: two enzymes of non-human origin: equine serum BChE and porcine liver CES; purchased Sigma-Aldrich; host or cells: equine serum
T2 sequence (P81908 whole entry): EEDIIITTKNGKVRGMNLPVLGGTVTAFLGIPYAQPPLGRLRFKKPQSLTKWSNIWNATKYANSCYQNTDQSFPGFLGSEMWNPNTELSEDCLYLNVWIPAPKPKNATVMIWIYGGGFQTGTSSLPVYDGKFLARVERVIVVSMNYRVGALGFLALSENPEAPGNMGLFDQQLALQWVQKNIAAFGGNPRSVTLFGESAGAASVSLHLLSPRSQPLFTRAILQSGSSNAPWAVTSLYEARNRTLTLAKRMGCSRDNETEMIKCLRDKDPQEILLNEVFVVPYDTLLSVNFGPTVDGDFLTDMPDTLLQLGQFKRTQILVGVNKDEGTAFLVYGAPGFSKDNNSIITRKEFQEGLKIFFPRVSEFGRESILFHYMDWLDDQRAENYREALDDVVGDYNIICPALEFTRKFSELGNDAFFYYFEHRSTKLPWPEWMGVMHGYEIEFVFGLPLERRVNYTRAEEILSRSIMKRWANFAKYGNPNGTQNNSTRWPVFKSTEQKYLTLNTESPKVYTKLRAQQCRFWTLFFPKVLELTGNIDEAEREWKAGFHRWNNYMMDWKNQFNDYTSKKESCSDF
The test can be described thus: biochemical. To be noted: for IC50: mean ± SEM, n = 3, pH 7.5, 25 °C; for Selectivity, S = IC50 AChE/IC50 BChE: ratio IC50 AChE/IC50 BChE. The procedure: as §1, §2, §3, §4, §5

The next test deals with Porcine liver CES. The test can be described thus: CES inhibition (4-nitrophenyl acetate hydrolysis). It counts as biochemical. To be noted: inhibition at compound concentration 20 µM; mean ± SEM, n = 3. As to the method:
as §1
Final enzyme and substrate (4-nitrophenyl acetate) concentrations were 0.02 unit/mL and 1 mM, respectively. Assays were carried out with a blank containing all constituents except porcine CES to assess non-enzymatic hydrolysis.
as §3, §4, §5

Another test concerns the target EeAChE PAS (Electrophorus electricus, UniProt O42275). The test can be described thus: Propidium iodide displacement from the PAS of EeAChE (fluorescence). It counts as binding. To be noted: compound concentration 20 µM; mean ± SEM, n = 3. The procedure:
EeAChE was used owing to its high degree of purification, high activity, and lower cost than human AChE (hAChE).
To determine the degree of displacement (% displacement) of propidium from the PAS of AChE, EeAChE (final concentration, 7 μM) was incubated with the test compound at a concentration of 20 μM in 1 mM Tris-HCl buffer pH 8.0, 25 °C, for 15 min. Then, propidium iodide solution (final concentration, 8 μM) was added, the samples were incubated for 15 min and the fluorescence spectrum (530 nm (excitation) and 600 nm (emission)) was taken. […] The blank contained propidium iodide of the same concentration in 1 mM Tris-HCl buffer pH 8.0. The measurements were carried out in triplicate on the FLUOStar Optima microplate reader (BMG Labtech), and the results were calculated by the following formula:% Displacement = 100 − (IFAChE+ Propidium + inhibitor/IFAChE + Propidium) × 100(1) where IFAChE + Propidium is the fluorescence intensity of the propidium associated with AChE in the absence of the test compound (taken as 100%), and IFAChE + Propidium + inhibitor is the fluorescence intensity of the propidium associated with AChE in the presence of the test compound.

For another test, the target named is T3, AChE (Homo sapiens, UniProt P22303).
T3 construct: AChE from human erythrocytes was used; purchased Sigma-Aldrich; host or cells: human erythrocytes
T3 sequence (P22303 other isoform, or with tags, fused parts or gaps): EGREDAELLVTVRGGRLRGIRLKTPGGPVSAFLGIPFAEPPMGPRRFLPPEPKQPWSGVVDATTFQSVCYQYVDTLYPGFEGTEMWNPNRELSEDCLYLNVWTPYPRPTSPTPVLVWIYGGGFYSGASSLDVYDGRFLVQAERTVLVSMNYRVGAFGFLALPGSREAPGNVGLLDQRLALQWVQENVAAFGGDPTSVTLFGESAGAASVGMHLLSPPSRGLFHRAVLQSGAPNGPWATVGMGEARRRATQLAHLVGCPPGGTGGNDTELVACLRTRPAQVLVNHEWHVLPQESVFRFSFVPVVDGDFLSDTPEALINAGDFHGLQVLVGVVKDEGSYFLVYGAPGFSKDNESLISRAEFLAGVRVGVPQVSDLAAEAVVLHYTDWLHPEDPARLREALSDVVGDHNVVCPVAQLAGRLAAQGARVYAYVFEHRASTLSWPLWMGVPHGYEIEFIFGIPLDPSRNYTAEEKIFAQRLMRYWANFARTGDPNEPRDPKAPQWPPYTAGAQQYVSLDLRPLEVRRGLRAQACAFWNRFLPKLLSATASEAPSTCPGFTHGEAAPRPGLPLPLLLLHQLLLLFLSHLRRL
Nature of the test: Kinetic study of AChE inhibition, steady-state inhibition constants. To be noted: for Type of AChE inhibition: changes in both Km and Vmax. It is filed as biochemical. As to the method:
(§6) • Kinetic Study of AChE and BChE Inhibition. Determination of Steady-State Inhibition Constants
(§7) Mechanisms of AChE and BChE inhibition were assessed via a thorough analysis of enzyme kinetics. Residual activity was measured following 5 min incubation at 25 °C (for temperature equilibration) with three increasing concentrations of inhibitor and six decreasing substrate concentrations. Substrate was added immediately after the 5 min incubation with inhibitor and the rates of absorption were monitored at 412 nm using the FLUOStar OPTIMA (BMG Labtech) microplate spectrophotometer. Inhibition constants Ki (competitive component) and αKi (noncompetitive component) were determined by linear regression of 1/V versus 1/[S] double-reciprocal (Lineweaver-Burk) plots using Origin 6.1 software. Data were expressed as mean ± SEM (n = 3 experiments).

The target in another test is T4, BChE (Equus caballus, UniProt P81908).
T4 construct: two enzymes of non-human origin: equine serum BChE and porcine liver CES; purchased Sigma-Aldrich; host or cells: equine serum
T4 sequence (P81908 whole entry): as the sequence (P81908 whole entry) above
The test can be described thus: Kinetic study of BChE inhibition, steady-state inhibition constants. It is filed as biochemical. The procedure:
as §6, §7

Test [1] deals with AChE-induced Aβ aggregation. As to conditions: at 100 µM; cited from earlier work.

T1 sequence (P22303 other isoform, or with tags, fused parts or gaps): as the sequence (P22303 other isoform, or with tags, fused parts or gaps) above
Chain of EeAChE PAS (O42275 24-633): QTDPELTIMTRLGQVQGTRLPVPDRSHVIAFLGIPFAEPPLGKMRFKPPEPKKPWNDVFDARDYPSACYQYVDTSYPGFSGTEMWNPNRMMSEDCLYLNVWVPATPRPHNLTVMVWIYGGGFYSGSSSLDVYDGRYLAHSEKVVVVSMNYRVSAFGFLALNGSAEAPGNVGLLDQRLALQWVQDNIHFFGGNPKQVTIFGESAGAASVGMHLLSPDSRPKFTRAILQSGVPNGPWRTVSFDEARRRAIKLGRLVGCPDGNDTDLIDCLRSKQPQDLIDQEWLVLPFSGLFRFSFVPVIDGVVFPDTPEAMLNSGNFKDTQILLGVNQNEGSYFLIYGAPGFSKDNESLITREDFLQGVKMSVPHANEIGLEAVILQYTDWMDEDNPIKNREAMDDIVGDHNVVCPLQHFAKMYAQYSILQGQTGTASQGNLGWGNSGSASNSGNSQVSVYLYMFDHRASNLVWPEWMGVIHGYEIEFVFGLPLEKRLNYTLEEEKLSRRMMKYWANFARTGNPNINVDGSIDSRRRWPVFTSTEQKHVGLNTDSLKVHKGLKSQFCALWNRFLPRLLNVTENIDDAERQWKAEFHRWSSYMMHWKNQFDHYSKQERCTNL

In general, IC50 refers to the point on the concentration scale where inhibition reaches its midpoint. A low value points to greater potency in that assay. `Cc1ccc(S(=O)(=O)NCCNc2c3c(nc4ccccc24)CCC3)cc1` [7a, N-(2-(2,3-Dihydro-1H-cyclopenta[b]quinolin-9-ylamino)-ethyl)-4-methyl-benzenesulfonamide]: 9030 ± 640 nM corresponded to half-maximal inhibition on Human erythrocyte AChE (IC50). Also, on Equine serum BChE, the IC50 was 924 ± 31 nM and the “Selectivity, S = IC50 AChE/IC50 BChE” value is given as 9.8. Moreover, the “Porcine Liver CES, (%)” value in the test with Porcine liver CES is listed as 11.9 ± 1.5%. Besides, the “Displacement of Propidium from the EeAChE PAS” value (“Displacement of Propidium” below) on EeAChE PAS is 9.2 ± 1.0%.

On to `Cc1ccc(S(=O)(=O)NCCCNc2c3c(nc4ccccc24)CCC3)cc1` [7b, N-(3-(2,3-Dihydro-1H-cyclopenta[b]quinolin-9-ylamino)-propyl)-4-methyl-benzenesulfonamide], for which half-maximal inhibition against Human erythrocyte AChE (IC50) was put at 7760 ± 610 nM. On Equine serum BChE, half-maximal inhibition (IC50) required 327 ± 4 nM and the “Selectivity, S = IC50 AChE/IC50 BChE” value is on record as 23.7. Further, in the test on Porcine liver CES, the “Porcine Liver CES, (%)” value was found to be 8.1 ± 0.6%. Besides, the “Displacement of Propidium” value on EeAChE PAS is on record as 12.3 ± 1.1%.

`Cc1ccc(S(=O)(=O)NCCCCNc2c3c(nc4ccccc24)CCC3)cc1` [7c, N-(4-(2,3-Dihydro-1H-cyclopenta[b]quinolin-9-ylamino)-butyl)-4-methyl-benzenesulfonamide]: at Human erythrocyte AChE, the IC50 turned out to be 2080 ± 80 nM. Moreover, on Equine serum BChE, the IC50 was determined as 578 ± 25 nM and the “Selectivity, S = IC50 AChE/IC50 BChE” value worked out at 3.6. Also, in the test with Porcine liver CES, the “Porcine Liver CES, (%)” value stood at 9.0 ± 0.1%. Also, on EeAChE PAS, the “Displacement of Propidium” value is given as 14.9 ± 1.2%.

Turning to `Cc1ccc(S(=O)(=O)NCCCCCNc2c3c(nc4ccccc24)CCC3)cc1` [7d, N-(5-(2,3-Dihydro-1H-cyclopenta[b]quinolin-9-ylamino)-pentyl)-4-methyl-benzenesulfonamide], it took 1970 ± 50 nM to reach half-maximal inhibition against Human erythrocyte AChE (IC50). Also, at Equine serum BChE, the IC50 was 459 ± 44 nM and the “Selectivity, S = IC50 AChE/IC50 BChE” value was 4.3. In addition, in the test with Porcine liver CES, the “Porcine Liver CES, (%)” value is 29.6 ± 1.2%. The “Displacement of Propidium” value on EeAChE PAS turned out to be 15.1 ± 1.4%.

As to `Cc1ccc(S(=O)(=O)NCCCCCCNc2c3c(nc4ccccc24)CCC3)cc1` [7e, N-(6-(2,3-Dihydro-1H-cyclopenta[b]quinolin-9-ylamino)-hexyl)-4-methyl-benzenesulfonamide], the IC50 turned out to be 4000 ± 90 nM on Human erythrocyte AChE and 209 ± 8 nM on Equine serum BChE. The “Porcine Liver CES, (%)” value with Porcine liver CES worked out at 18.6 ± 0.2%. Also, the “Displacement of Propidium” value on EeAChE PAS is reported as 15.9 ± 1.3%.

`Cc1ccc(S(=O)(=O)NCCCNc2c3c(nc4ccccc24)CCCC3)cc1` [7f, 4-Methyl-N-(3-(1,2,3,4-tetrahydro-acridin-9-ylamino)-propyl)-benzenesulfonamide]: the IC50 against Human erythrocyte AChE came out at 1880 ± 30 nM; against Equine serum BChE, 110 ± 5 nM. Besides, the “Selectivity, S = IC50 AChE/IC50 BChE” value on Equine serum BChE was 17.1. Also, in the test with Porcine liver CES, the “Porcine Liver CES, (%)” value amounted to 2.0 ± 0.8%. Besides, the “Displacement of Propidium” value on EeAChE PAS was 9.8 ± 0.8%.

In general, Ki refers to the equilibrium dissociation constant of an inhibitor or competing ligand from its target. For the molecule `Cc1ccc(S(=O)(=O)NCCCCNc2c3c(nc4ccccc24)CCCC3)cc1` [7g, 4-Methyl-N-(4-(1,2,3,4-tetrahydro-acridin-9-ylamino)-butyl)-benzenesulfonamide], the values for the half-maximal inhibitory concentration (IC50) against Human erythrocyte AChE and at Equine serum BChE were 668 ± 170 nM and 61.7 ± 0.3 nM, respectively. For the same molecule, on Equine serum BChE, the “Selectivity, S = IC50 AChE/IC50 BChE” value was 10.8. Also, the “αKi (noncompetitive component), AChE” value on AChE (Lineweaver-Burk analysis) came to 1.09 ± 0.02 µM. For the same molecule, the Ki at AChE (Lineweaver-Burk analysis, read-out: Ki (competitive component), AChE) amounted to 390 ± 8 nM; on BChE (Lineweaver-Burk analysis, read-out: Ki (competitive component), BChE), 23.5 ± 0.2 nM. In addition, on AChE, the “Type of AChE inhibition” value is on record as “mixed type of inhibition”. Also, the “Porcine Liver CES, (%)” value in the test with Porcine liver CES stood at 17.1 ± 1.4%. The “αKi (noncompetitive component), BChE” value at BChE (Lineweaver-Burk analysis) was 0.117 ± 0.002 µM. On BChE (changes in both Km and Vmax), the “Type of BChE inhibition” value was “mixed type of inhibition”. Moreover, on EeAChE PAS, the “Displacement of Propidium” value was found to be 14.8 ± 1.3%.

For the molecule `Cc1ccc(S(=O)(=O)NCCCCCNc2c3c(nc4ccccc24)CCCC3)cc1` [7h, 4-Methyl-N-(5-(1,2,3,4-tetrahydro-acridin-9-ylamino)-pentyl)-benzenesulfonamide], the half-maximal inhibitory concentration (IC50) against Human erythrocyte AChE came to 131 ± 10 nM. Moreover, on Equine serum BChE, 68 ± 1.4 nM corresponded to half-maximal inhibition (IC50) and the “Selectivity, S = IC50 AChE/IC50 BChE” value was 1.9. Moreover, the “Type of AChE inhibition” value at AChE is “mixed-type AChE inhibitor”. Moreover, the “Porcine Liver CES, (%)” value with Porcine liver CES is on record as 6.7 ± 0.8%. For the same molecule, at EeAChE PAS, the “Displacement of Propidium” value was determined as 17.5 ± 1.5%.

Turning to `Cc1ccc(S(=O)(=O)NCCCNc2c3c(nc4ccccc24)CCCCC3)cc1` [7i, 4-Methyl-N-(3-(7,8,9,10-tetrahydro-6H-cyclohepta[b]quinolin-11-ylamino)-propyl)-benzenesulfonamide], on Human erythrocyte AChE, the IC50 amounted to 2760 ± 40 nM. Also, at Equine serum BChE, half-maximal inhibition (IC50) required 43.1 ± 1.1 nM and the “Selectivity, S = IC50 AChE/IC50 BChE” value worked out at 64.0. In addition, the “Porcine Liver CES, (%)” value in the test on Porcine liver CES was 1.9 ± 0.9%. At EeAChE PAS, the “Displacement of Propidium” value worked out at 13.9 ± 1.3%.

For the molecule `Cc1ccc(S(=O)(=O)NCCCCNc2c3c(nc4ccccc24)CCCCC3)cc1` [7j, 4-Methyl-N-(4-(7,8,9,10-tetrahydro-6H-cyclohepta[b]quinolin-11-ylamino)-butyl)-benzenesulfonamide], the IC50 at Human erythrocyte AChE was 1160 ± 30 nM. Moreover, on Equine serum BChE, the IC50 came out at 78.8 ± 6 nM and the “Selectivity, S = IC50 AChE/IC50 BChE” value turned out to be 14.7. In addition, the “Porcine Liver CES, (%)” value in the test with Porcine liver CES came to 10.3 ± 0.8%. For the same molecule, on EeAChE PAS, the “Displacement of Propidium” value was found to be 16.1 ± 1.4%.

With `Cc1ccc(S(=O)(=O)NCCCNc2c3c(nc4ccccc24)CCCCCC3)cc1` [7k, N-(3-(6,7,8,9,10,11-Hexahydro-cycloocta[b]quinolin-12-ylamino)-propyl)-4-methyl-benzenesulfonamide], the results for the IC50 against Human erythrocyte AChE and against Equine serum BChE were 11100 ± 200 nM and 461 ± 7 nM, respectively. Moreover, the “Selectivity, S = IC50 AChE/IC50 BChE” value at Equine serum BChE was determined as 24.1. In addition, the “Porcine Liver CES, (%)” value in the test with Porcine liver CES came out at 5.2 ± 1.5%. Further, on EeAChE PAS, the “Displacement of Propidium” value is listed as 15.9 ± 1.7%.

For `O=[N+]([O-])c1ccc(OP(=O)(O)Oc2ccc([N+](=O)[O-])cc2)cc1` [BNPP, bis-4-nitrophenyl phosphate, reference compound], the “Porcine Liver CES, (%)” value in the test on Porcine liver CES worked out at 1.80 ± 0.11%.

`CC[N+](C)(CC)CCC[n+]1c(-c2ccccc2)c2cc(N)ccc2c2ccc(N)cc21` [Propidium]: the “decrease in AChE-induced Aβ aggregation” value in test [1] was 82%.
